Measurements taken from paper PMC11530689, “Anti colorectal cancer activity and in silico studies of novel pyridine nortopsentin analog as cyclin dependent kinase 6 inhibitor” (Scientific Reports, 2024).

Assays:
HCT-116 cells = experiment: MTT assay, IC50 determination; type: cell-based; conditions: Homo sapiens, colorectal cancer HCT-116 cells, 48 h
Experimental: HCT-116 (colon cancer cell line) was obtained from the American Type Culture Collection (ATCC). The cancer cell line was grown in Dulbecco’s Modified Eagle’s Medium (DMEM) supplemented with 10% fetal bovine serum (FBS), penicillin/streptomycin (100 U/mL and 100 μg/mL, respectively) and 2 mM L-glutamine. The cells were maintained at 37 °C in 5% CO2.
(§1) The cytotoxic activity of nortopsintin analogs (4a–4j) was determined by the national cancer institute (NCI, Bethesda, Maryland, USA) against 60 different cancer cell lines at a single concentration of (10^−5 M). For the determination of IC50 value, we used MTT assay kit (Sigma) according to the manufacturer’s protocol. HCT-116 cells were seeded into a 96-well plate at a concentration of 20,000 cells/well. After 24 h, the media was aspirated and replaced with serum-free media containing serial dilutions of the 4i compound. The cells were treated for 48 h in triplicates. […] The percentage of cytotoxicity was calculated using the following equation: % Cytotoxicity = [1 − (AVx/AVNC)] × 100.
Where, AVx denotes the average absorbance of the sample and AVNC denotes the average absorbance of the negative control. The absorbance was measured at 570 nm with reference at 690 nm.

HCT116 cells = experiment: Cell cycle analysis by FACS (PI staining); type: cell-based, human; conditions: HCT116, treated with IC50 for 48 h, control 41.93%
Experimental: Briefly, HCT116 cells were treated with 4i compound’s IC50 for 48 h. Then, the cells were fixed in cold 70% ethanol solution for 2 h at 4 °C and centrifuged at 800 g for 5 min. The ethanol solution was removed. PBS was used to wash the cells twice. DNA was stained with 1 µg/mL propidium iodide (PI) solution (Sigma-Aldrich, St. Louis, MO, USA), supplemented with 100 µg/mL RNase A (Roche, Basel, Switzerland) for 30 min in the dark at 37 °C. After centrifugation, the cells were suspended in phosphate buffer solution and the fluorescence was measured using flow cytometry by FACSCalibur (BD Biosciences, Mountain View, CA). The data were analyzed using the CellQuest software (BD Biosciences).

[1] = test system: 60 different cancer cell lines; experiment: NCI screen against 60 cancer cell lines, overall; type: cell-based; conditions: single concentration 10^−5 M
Experimental: as §1, with “(4a-4j)” for “(4a–4j)”, “(10^-5” for “(10^−5”, “manufacturer's” for “manufacturer’s”, “compound.” for “compound. The cells were treated for 48 h in triplicates.”, “- ([…])]” for “− (AVx/AVNC)]”

## CN(C)c1ccc(-c2cc(-c3c[nH]c4ccccc34)nc(-c3c[nH]c4ccccc34)c2C#N)cc1 [4i]
HCT-116 cells
  IC50: 28.8 nM
HCT116 cells
  cells at G1 phase (%DIP G1): 47.62%
[1]
  cytotoxic / antiproliferative activity over the panel: highest level of cytotoxic activity
